In patent US20080299598A1, “Detector Comprising a Membrane Perturbation - Detecting Polymer and Functional Membrane Fragments” (priority 2004, published 2008):

Columns and labels:
[1] = tested on: plasma membrane fragments obtained from PC12 cells; assay: Chromatic response (% CR) of the polydiacetylene construct made with plasma membrane fragments from PC12 cells (detects membrane-permeating drugs); type: in vitro ADME; settings: analyte up to 11 μM; 25 mM Tris base pH 8; FIG. 2
Protocol: FIG. 2 illustrates the detection of a drug molecule capable of permeating cellular membrane using the construct of the invention (comprising plasma membrane fragments obtained from PC12 cells and polydiacetylene).
(§1) 20 μl of 10,12-tricosadionic acid taken from a stock solution in 60 mM chloroform/ethanol (1:1) are dried in vacuo up to constant weight. The dried material is then resuspended in 1.950 ml deionized water and subjected to probe sonication at 70° C. for 3 minutes. The solution thus obtained is then cooled for 15 minutes, and 50 μl of plasma membrane from PC12 cells (prepared as described hereinabove) is added thereto. The vesicle suspension obtained thereby is then subject to another round of sonication for 10 seconds, left to cool to room temperature and than stored at 4° C. overnight.
Aqueous stock solutions containing 5.2 mg/ml propranolol and 1.5 mg/ml amoxicillin were prepared. […]
FIG. 2 depicts the chromatic response factor calculated for various Propranol- or Amoxicillin-containing samples on the basis of the UV-vis spectra measured, versus the concentration of the analyte (that is, either Propranol or Amoxicillin) in said samples. […]

muscarinic receptor = assay: Chromatic response (% CR) of the polydiacetylene construct made with crude membrane fragments from PC12 cells overexpressing the muscarinic receptor; type: binding; settings: atropine up to 20 μM; 25 mM Tris base pH 8; compared with construct from regular PC12 crude membrane; FIG. 1
Protocol: PC12 cells overexpressing the muscarinic receptors were prepared using conventional transfection techniques, as described, for example, by Sadot et al. [Israel Journal of neurochemistry (1996 February), 66(2), 877-80.]
as §1, with “crude” for “plasma”, “hereinabove and containing 10 mg/ml protein)” for “hereinabove)”
An aqueous stock solution containing Atropine at a concentration of 0.55 mg/ml was prepared. […]
The UV-vis spectroscopic measurements were carried out three times for each of the samples prepared, using a Jena Analytical Elisa-reader using 96 well microplates. The blue-to-red chromatic transitions were quantified using the chromatic response factor, as defined below:
where Ablue and Ared are the absorbance measured at about 640 nm and about 500 nm, respectively. […]

Row | chromatic change (% CR) [1] | SMILES | chromatic transition (% CR) (muscarinic receptor)
1 | very low % CR | CC1(C)S[C@@H]2[C@H](NC(=O)[C@H](N)c3ccc(O)cc3)C(=O)N2[C@H]1C(=O)O [Amoxicillin] | 
2 |  | CN1[C@@H]2CC[C@H]1C[C@@H](OC(=O)C(CO)c1ccccc1)C2 (stereo partly drawn) [atropine, Atropine] | high % CR
3 | high % CR | CC(C)NCC(O)COc1cccc2ccccc12 (stereo not drawn) [propranolol] | 
